Literature values as cited in patent US20060062074A1, “Method for intracellular modifications within living cells using pulsed electric fields” (priority 2001, published 2006).

Tested on: a variety of cell lines
Conditions: 0.0075% Triton X-100; positive control; literature (Borner et al. 1994)

Substance: Triton X-100
- induction of apoptosis: induce apoptosis
